The results in this text go back to patent publication US20110077215A1, “DNA Methylation As A Target For Diagnosis And Treatment Of Chronic Lymphocytic Leukema (CLL)” (THE UNIVERSITY OF UTAH RESEARCH FOUNDATION, priority 2005, published 2011).

“Also recorded” adds a separate entry of the source. Marks after values point to notes of the source that are not given here.

Data set [1] relates to miRNA expression in patients with CLL. Put plainly: miRNA expression profile (Taqman real-time PCR) before and after DNA methylation inhibitor. The settings on record: for Changes in bcl-2, p53, mir-15, mir-16: after treatment; for miR-34a and miR-195 expression: patients with decreased lymphocytosis following drug treatment; for Expression of mir-17-3p, mir-21, mir-29a/b/c, mir-30e, mir-104, mir-126, mir-128a, mir-130a, mir-141, mir-142-3p, mir-148a, mir-151, mir-199a, mir-199a*, mir-301: real-time PCR, Early Access Human Panel; for microRNA expression after treatment: six patients on 5-azacytidine, one patient on 2-chloro-2-deoxyadenosine. Format: in vivo, human. How it is done: The DNA MI was measured in each patient before and after treatment with low dose cladribine.
(§1) Patients with CLL not in immediate need for cytoreductive therapy are enrolled on a dose-escalation study of low-dose 5-azacytidine (Vidaza, provided by the Pharmion Corporation.) Patients must have a KPS greater than 70%, white blood cell count greater than 20,000/μL hemoglobin >8 g/dL, platelet count >50,000/μL, normal liver, and renal functions. The study was carried out in 2 stages using a modification of the design proposed by Storer. {Storer, 1989 #16} In the first stage, patients were enrolled as single patient cohorts until either at least a 20% DNA MI inhibition or a greater than grade II toxicity. This allowed us to get closer to the target biologically effective dose before enrolling three patient cohorts. The global DNA MI and the miRNA expression profile of 6 patients before and after 5-azacytidine in the patients in the first stage of the study protocol was determined. Patients received 10-70 mg/m^2/day on days 1-3 and days 8-10.
Total RNA is extracted with Trizol, as previously described. {O'Donnell, 2005 #182} MiRNA expression was determined using the Applied Biosystems Taqman MicroRNA Assays Human Panel Early Access Kit. 10 ηg of RNA is used for each sample. cDNA is made using a looped RT primer provided by the kit. A 1 to 5 dilution of the cDNA is used for each sample and used for quantitative PCR on the ABI 7900HT Fast Real-Time PCR System. MiRNA-specific forward and reverse primers were provided in plates A and B. MiR-16 and let-7a served as positive controls while let-2 served as a negative control for human samples. Each miRNA were performed in quadriplicates. The miRNA expression was determined for CD5^+B-lymphocytes obtained from pediatric tonsils and from B-lymphocytes of 5 healthy controls.
Two different DNA methylation inhibitors were studied with respect to re-expression of microRNA: a DNA methyltransferase enzyme inhibitor, 5-azacytidine, and a methyl substrate inhibitor, 2-chloro-2-deoxyadenosine. […] Mir-17-3p and mir-21 have anti-apoptotic properties.

Another data set relates to patients with CLL. Put plainly: Dose-escalation study of low-dose 5-azacytidine: toxicity. It counts as in vivo, human. The method, then:
as §1

The subject of data set [2] is global DNA methylation. Put plainly: Global DNA MI (HPLC) before and after low-dose 5-azacytidine. It counts as in vivo, human.
Data set [3] relates to global DNA methylation. The experiment in a line: Global methylation analysis after continuous infusion Decitabine. Format: in vivo, human. The settings on record: patients treated with Decitabine. How it is done: All patients were treated with continuous infusion Decitabine given intravenously in an inpatient setting. […] The method for assessing DNA methylation was consistent and reproducible (Samlowski et al. Manuscript submitted to JCO).

Data set [4] has as its system global DNA methylation. The experiment in a line: Global DNA methylation (HPLC of digested genomic DNA) before and after low-dose cladribine. Format: in vivo, human.
The subject of data set [5] is histone 3 (H3) methylation in CLL cells. Put plainly: Histone methylation immunofluorescence of CLL cells after low-dose cladribine. Format: in vivo, human. The method, then:
The DNA and the mononuclear cells from the buffy coat were stored from the majority of patient samples. DNA was used for global DNA methylation studies and the mononuclear cells from the buffy coat were used to measure changes in H3 methylation by immunofluorescence before and after treatment.
3×10^4 CLL cells were mounted onto a slide by cytospin at 800 rpm for 3 minutes. They were then fixed in 95% ethanol/5% acetic acid for 10 minutes, followed by incubation in 0.25 M sodium butyrate for 24 hours at room temperature. The slides were stained by the Ventana automated immunostainer at 40° C. The slides were first stained with the primary antibody (1:50) for 32 minutes, followed by staining with the secondary antibody (sheep or rabbit IgG-FITC) (1:200) for 32 minutes. Slides were counterstained with DAPI (1:100) for 1 minute and hematoxylin (Ventana Medical Systems) for 4 minutes. Fluorescent detection was performed with the IView DAB detection kit (Ventana Medical Systems). Intensity of fluorescence was quantitated by a wide field fluorescent microscope and quantified by the Openlab modular imaging software. Signal to noise was optimized by the software.
A histone methylation assay that uses immunofluorescence to assess for histone methylation patterns after treatment with low-doses of cladribine was developed. […] These states are associated with transcription silencing. (See Jaskelioff et al., Nat. Cell. Biol. (2003) 5:395-99). In FIG. 4, an average of 100 cells was quantitated in the fluorescence intensity at each time point. The asterisk corresponds to days of treatment with cladribine. The error bars at each time point refer to the range of antibody staining in all cells. […] Multiparametric flow cytometry may be utilized to analyze further which subset of CLL cells respond to low doses of drugs.

The subject of a further data set is HT-29 cells. Put plainly: DNA microarray analysis of gene re-expression after Cladribine. Format: cell-based. The settings on record: HT-29 colon cancer cell line.
The subject of data set [6] is patients with chronic lymphocytic leukemia. Put plainly: Phase I dose-escalation of low-dose subcutaneous cladribine: clinical response and toxicity. It counts as in vivo, human. How it is done:
Additional inclusion criteria included: KPS>70%, absolute neutrophil count >1500/μl, platelet count >100,000/μl, creatinine <2.0 mg/dl, normal liver function tests, no evidence of active infections on chest x-ray or urinalysis, and no concurrent chemotherapy or radiation therapy within 4 weeks of registration. Each patient signed an informed consent form approved by the University of Utah institutional review board, Clinical Cancer Investigation Committee, and Salt Lake City Veterans Administration Medical Center (SLC VAMC) Research and Development office.
The study accrued three patients from the VAMC and two patients from the Huntsman Cancer Institute at the University of Utah from January to May 2005. The patients were given three consecutive subcutaneous injections of cladribine (Leustatin) once every 28-32 days, starting at a dose of 0.05 mg per kg per day. The primary endpoint of the study was to find the dose of cladribine which caused a 20% decrease in global DNA methylation. Each patient served as their own control, and was dose-escalated every 28-32 days by 0.01 mg per kg per day if the primary endpoint was not met. Patients were given prophylactic doses of trimethoprim/sulfamethoxazole for the prevention of pneumocystis carinii. Patients allergic to trimethoprim/sulfamethoxazole were prescribed prophylactic doses of dapsone. No clinical endpoints were written into the study initially. […] A clinical response was defined by the NCI-sponsored working group for CLL. (See Cheson et al., BLOOD (1996) 87:4990-97). A patient was considered to have completed the study when the total white blood count was less than 10,000 cells/μl after two consecutive weekly blood counts. The entire study was conducted at the University of Utah General Clinical Research Center (GCRC). Leustatin was provided to the patients by Tibotec Therapeutics, a division of Johnson and Johnson.
Five patients with CLL were given subcutaneous injections of cladribine (Leustatin, provided by Tibotec Therapeutics) on three consecutive days at 28-32 day intervals, starting at a dose of 0.05 mg/kg/day, approximately ⅓ of the recommended therapeutic dose. {Juliusson, 1993 #10; Juliusson, 1996 #11} Five patients with a confirmed diagnosis of CLL (Table 3) participated in an Institutional Review Board-approved protocol between January and May 2005 after informed consent was obtained. […] Inclusion criteria included: KPS>70%, absolute neutrophil count >1500/μL, platelet count >100,000/μL, creatinine <2.0 mg/dL, normal liver function tests, no evidence of active infections, and no concurrent chemotherapy or radiation therapy within 4 weeks of registration.

The mark [7] stands for this setting: CLL cells after low dose cladribine.
[8] abbreviates: low-dose cladribine s.c., 5 CLL patients.
[9] abbreviates: low-dose cladribine, 5 patients.

Procedure for HT-29 cells: Lymphocytes are inclubated with 0-3 μM Cladribine.
Total RNA is isolated with RNeasy mini kits (Qiagen) from samples treated with Cladribine or vehicle. Approximately 1 μg may be amplified using Message Amp kits (Ambion). In replicate experiments, DNA from the vehicle or treated samples may be variably labeled with Cy-3 and Cy-5 dye and two microarray experiments may be performed for each dye-orientation. The utilized microarray slides consist of 9600 genes from the Research Genetics 40k sequence-verified human clone set. Each sample is deposited in duplicate, with a Lucidea (Amersham) robotic spotter. After hybridization, the microarray slides are scanned with an Axon scanner, and data quantified using Imagene and GeneSight software. The local background is subtracted. Data points with no signal, high background, or spot asymmetry are eliminated. Genes with low expression and low signal intensity are adjusted to a minimal raw value of 5 to avoid unwarranted mathematical distortions due division by decimals <<1. After calculating the ratio of the Cy5/Cy3 fluorescence signal intensity for each gene, data is normalized relative to the mean intensity from all genes. […] Data is analyzed with Spotfire software for statistical and hierarchical cluster analysis using an unweighted pair-group method with arithmetic mean with a Euclidean distance metric.

For the compound `Nc1ncn([C@@H]2O[C@H](CO)[C@@H](O)[C@H]2O)c(=O)n1` [5-azacytidine], in data set [1], the “Changes in bcl-2, p53, mir-15, mir-16” value is on record as “No changes”; the “miR-34a and miR-195 expression” value is “upregulated”; the “Expression of mir-17-3p, mir-21, mir-29a/b/c, mir-30e, mir-104, mir-126, mir-128a, mir-130a, mir-141, mir-142-3p, mir-148a, mir-151, mir-199a, mir-199a*, mir-301” value is recorded as “consistent microRNA upregulation”; the “microRNA expression after treatment” value is “Increased microRNA expression”. In addition, the Toxicity result with patients with CLL (5th patient, 60 mg/m^2/day) is “grade II thrombocytopenia and anemia”. In the data set with patients with CLL (the other patients, 10-70 mg/m^2/day), the Toxicity entry is on record as “No other toxicities were observed”. Also, the “Global decrease of DNA methylation after treatment” value in the data set with global DNA methylation [2] (6 out of 7 patients, pooled with the 2-chloro-2-deoxyadenosine patient) is recorded as 8%. Further, in the data set on global DNA methylation [2] (four out of the 6 patients, low-dose 5-azacytidine), the “Decrease in global DNA MI” value was ~10%. In addition, in the data set with global DNA methylation [2] (patients 2 and 4, low-dose 5-azacytidine), the “Change in global DNA MI” value was “No change”.
For `Nc1ncn([C@H]2C[C@H](O)[C@@H](CO)O2)c(=O)n1` [Decitabine, 5-aza-2-deoxycytidine], in the data set with global DNA methylation [3], the “Decrease in global DNA methylation level achievable” value is listed as ≥ 20%.
On to `Nc1nc(Cl)nc2c1ncn2[C@H]1C[C@H](O)[C@@H](CO)O1` [cladribine, 2-chlorodeoxyadenosine], for which, in data set [1], the “Changes in bcl-2, p53, mir-15, mir-16” value was “No changes”; the “miR-34a and miR-195 expression” value is reported as “upregulated”; the “Expression of mir-17-3p, mir-21, mir-29a/b/c, mir-30e, mir-104, mir-126, mir-128a, mir-130a, mir-141, mir-142-3p, mir-148a, mir-151, mir-199a, mir-199a*, mir-301” value was “consistent microRNA upregulation”; the “microRNA expression after treatment” value is on record as “Increased microRNA expression”. Moreover, the “Global decrease of DNA methylation after treatment” value in the data set with global DNA methylation [4] (6 out of 7 patients, pooled with the six 5-azacytidine patients) worked out at 8%. The “Effect on global DNA methylation” value in the data set with global DNA methylation [4] (low-dose cladribine) is on record as “modest response; also recorded: not an effective DNA methylation inhibitor; also recorded: minimal inhibition in global DNA methylation”. In addition, in data set [5] (setting [7]), the “H3 dimethylated lysine 9 immunofluorescence” value was “Little change”; the “H3 monomethylated lysine 4 immunofluorescence” value is “decreased to levels akin to signal intensity obtained from total histone 3; also recorded: decrease transiently”; the “H3 monomethylated lysine 9 immunofluorescence” value is “increase and rise”; the “H3 phospho-serine 10 immunofluorescence” value was “decrease and rise”. Besides, the “H3 trimethylated lysine 9 immunofluorescence” value in data set [5] (setting [7]) is “increase in trimethylated lysine 9 approximately 1 week later and increase and rise”. Further, the “Total histone 3 immunofluorescence” value in data set [5] (patient 4, 0.05 mg per kg per day cladribine) is “minimal changes”. In addition, in the data set on HT-29 cells, the “Re-expression of silenced genes (DNA microarray)” value is given as “re-expression of silenced genes in HT-29 cells”. The “Hemoglobin change over the course of the study” value in data set [6] (Patient 1) is given as “did not exhibit a decrease in hemoglobin”. Moreover, the Toxicities overall entry in data set [6] (low-dose cladribine 0.05-0.09 mg per kg per day) is reported as “without toxicities”. In addition, in data set [6] (low-dose cladribine 0.05-0.09 mg per kg per day, 3 days every 28 days), the “Clinical response (NCI-sponsored working group)” value is “induce a clinical response in some patients; also recorded: partial response; also recorded: Three out of the five”. Also, in data set [6] (setting [8]), the “CR (number of patients)” value came to 0, the “PD (number of patients)” value turned out to be 1 and the PR duration is reported as 5 months. In data set [6] (setting [9]), the “Hematologic toxicities Grade III/IV (number of patients)” value is given as “Grade III/IV (0)”, the “Non-hematologic toxicities Grade I/II (number of patients)” value is given as “Grade I/II (2)*” and the “Non-hematologic toxicities Grade III/IV (number of patients)” value is on record as “Grade III/IV (0)”. The “Non-hematologic toxicities observed (adverse events)” value in data set [6] (low-dose cladribine, events in patient 4) is on record as “Two grade II non-hematologic toxicities; also recorded: grade II lymphadenitis; also recorded: second grade II infection, a community-acquired pneumonia”. In addition, the “Decrease in lymphocyte count by 50% (time)” value in data set [6] (mean of the 5 patients on trial, range 8-67 days) is listed as 48 days (8-67 days)**. The Hemoglobin in data set [6] (mean of the 5 patients on trial, range 12.1-16 g/dL) was 14.6 g/dL (12.1-16 g/dL)**. Moreover, the Platelet count in data set [6] (mean of the 5 patients on trial, range 133-438k/μL) is on record as 224k/μL (133-438k/μL)**. Further, the “Reduction in circulating leukemia cells” value in data set [6] (patient 1, dose escalation) is “did not demonstrate a reduction in circulating leukemia cells until the third dose escalation of 0.07 mg per kg per day”. Moreover, in data set [6] (patient 3, higher baseline global DNA methylation), the “Outcome of patient 3 (previously treated)” value was “progressive disease; also recorded: progression with a gradually increasing white blood count”. In addition, the “White blood cell count change” value in data set [6] (patient 5, first dose 0.05 mg per kg per day) is “dramatic reduction in white blood cell count”. Besides, in data set [6] (patients 1, 2, 4 and 5 after low dose cladribine), the “Reduction in white blood cell count” value is reported as ≥ 50%.
